We go through four compounds from US20050176641A1, “Long lasting natriuretic peptide derivatives” (CONJUCHEM, INC., priority 2000, published 2005).

For data set [1], the target named is T1, natriuretic peptide receptors with guanylate cyclase activity (Homo sapiens, UniProt P16066).
T1 construct: Hela cells express high levels of natriuretic peptide receptors with guanylate cyclase activity; endogenous in cells; host or cells: HeLa (human cervix epithelial adenocarcinoma)
T1 sequence (P16066 33-1061): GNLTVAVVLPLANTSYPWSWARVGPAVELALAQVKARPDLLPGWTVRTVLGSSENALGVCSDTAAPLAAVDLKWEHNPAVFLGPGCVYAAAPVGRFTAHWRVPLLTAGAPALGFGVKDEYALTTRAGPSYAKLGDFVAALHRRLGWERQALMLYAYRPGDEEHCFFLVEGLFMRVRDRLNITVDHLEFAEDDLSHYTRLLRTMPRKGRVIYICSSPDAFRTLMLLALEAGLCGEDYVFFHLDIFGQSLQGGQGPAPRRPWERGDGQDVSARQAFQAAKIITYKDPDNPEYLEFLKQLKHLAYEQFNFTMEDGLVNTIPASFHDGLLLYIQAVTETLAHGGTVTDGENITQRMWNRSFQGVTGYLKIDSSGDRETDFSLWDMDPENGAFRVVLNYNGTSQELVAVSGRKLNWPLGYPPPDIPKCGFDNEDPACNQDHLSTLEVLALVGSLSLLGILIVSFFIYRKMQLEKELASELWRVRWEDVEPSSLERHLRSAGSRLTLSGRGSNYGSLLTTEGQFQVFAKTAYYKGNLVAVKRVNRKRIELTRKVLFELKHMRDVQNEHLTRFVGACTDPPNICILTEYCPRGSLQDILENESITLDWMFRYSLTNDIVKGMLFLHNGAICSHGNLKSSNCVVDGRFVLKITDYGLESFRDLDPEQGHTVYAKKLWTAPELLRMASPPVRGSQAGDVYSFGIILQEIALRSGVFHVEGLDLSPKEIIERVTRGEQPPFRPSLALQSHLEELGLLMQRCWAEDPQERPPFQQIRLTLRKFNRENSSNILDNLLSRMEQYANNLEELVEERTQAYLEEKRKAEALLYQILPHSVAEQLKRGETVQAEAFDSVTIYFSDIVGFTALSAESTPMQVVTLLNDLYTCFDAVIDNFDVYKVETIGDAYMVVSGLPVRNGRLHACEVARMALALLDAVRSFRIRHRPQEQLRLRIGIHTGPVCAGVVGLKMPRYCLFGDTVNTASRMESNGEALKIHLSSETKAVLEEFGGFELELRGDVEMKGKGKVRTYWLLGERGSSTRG
The data set is described as follows: cGMP production in human Hela cells. The data set is classed as cell-based.
Experimental: For in vitro activity studies, a human cervix epithelial adenocarcinoma cell line was used. Hela cells express high levels of natriuretic peptide receptors with guanylate cyclase activity.
One day prior cGMP experiments, cells are seeded in 48-wells plate (5×10^4 cells per well) and incubated overnight. The day of the experiment cells are washed twice in serum-free media and then incubated with or without NP derivatives or native ANP or BNP for one hour, in presence of 3-isobutyl-1-methylxanthine to prevent cGMP degradation. Incubation is terminated by removing the assay medium and by adding HCl to the cells for 10 minutes. The supernatants were then collected, centrifuged and cGMP levels are assessed using the direct cGMP EIA kit from Sigma.

The next data set concerns the target NPR receptors. Briefly: Binding to guinea pig adrenal gland membranes by displacement of 125I-rANP. As to the method: The potency of NP derivatives is evaluated as their ability to bind NPR receptors in guinea pig adrenal glands and to elevate cGMP levels in a rat primary lung fibroblasts assay. Others cell lines can be used to perform these in vitro assays such as aortic smooth muscle cells, glomeruli mesangial cells and adrenal cells. Human, rat, and ginea pig cell lines or other species cell lines can be used with a preference for human cell lines.
Membranes for binding studies are prepared as follow. Adrenal glands were collected from anesthetized normal Duncan Hartley Guinea Pig and homogenized using a polytron in 50 mM Tris-HCl buffer containing 150 mM NaCl, 5 mM MgCl2, 5 mM MnCl2; pH 7.4 at 25° C. The homogenate was centrifuged for 10 minutes at 39,000×g (4° C.). The pellet was resuspended and washed. Finally, the membranes were resuspended in the same buffer supplemented with 1 mM Na2EDTA+0.2% BSA. Protein concentration is measured using the BCA protein assay kit (Pierce). The binding assay is done by incubation of membranes with 0.016 nM ^125I-rANF and increasing concentrations of either NP peptides or NP derivatives (10^−5-10^−11 M) for 60 minutes at 4° C. All assays were done in duplicate. Separation of bound and free radioactive rANF was achieved by rapid filtration through polyethylenimine-treated Whatman GF/C filters soaked in assay buffer. Filters were washed, dried and counted for radioactivity in a gamma-counter.
For orientation: In a radioligand displacement assay an active substance lowers the binding of a labelled ligand.

For data set [2] the following is noted: literature values; cited from earlier work.
The mark [3] stands for this setting: human Hela cells, one hour incubation, with 3-isobutyl-1-methylxanthine, read-out: EC50 (M), increase of cGMP production.

Like-named read-outs stand apart in the source and are kept apart here. Positions of bridges follow the written chain, without caps; N, C: chain ends. Residues, ends and D or L forms follow the SMILES beside them.

For the compound `CC[C@H](C)[C@@H]1NC(=O)[C@H](CCCNC(=N)N)NC(=O)[C@H](CC(=O)O)NC(=O)[C@H]([C@@H](C)CC)NC(=O)[C@H](CCCNC(=N)N)NC(=O)CNC(=O)CNC(=O)[C@H](Cc2ccccc2)NC(=O)[C@@H](N)CSSC[C@@H](C(=O)N[C@@H](CC(N)=O)C(=O)N[C@@H](CO)C(=O)N[C@@H](Cc2ccccc2)C(=O)N[C@@H](CCCNC(=N)N)C(=O)N[C@@H](Cc2ccc(O)cc2)C(N)=O)NC(=O)CNC(=O)[C@H](CC(C)C)NC(=O)CNC(=O)[C@H](CO)NC(=O)[C@H](CCC(N)=O)NC(=O)[C@H](C)NC(=O)CNC1=O` [Example 13] (H-CFGGRIDRIGAQSGLGCNSFRY-NH2; disulfide 1-17), in data set [1] (setting [3]), the EC50 worked out at 2.72e-08 M.

Consider `CC[C@H](C)[C@@H]1NC(=O)[C@H](CCCNC(=N)N)NC(=O)[C@H](CC(=O)O)NC(=O)[C@H](CCSC)NC(=O)[C@H](CCCNC(=N)N)NC(=O)CNC(=O)CNC(=O)[C@H](Cc2ccccc2)NC(=O)[C@@H](N)CSSC[C@@H](C(=O)N[C@@H](CC(N)=O)C(=O)N[C@@H](CO)C(=O)N[C@@H](Cc2ccccc2)C(=O)N[C@@H](CCCNC(=N)N)C(=O)N[C@@H](Cc2ccc(O)cc2)C(N)=O)NC(=O)CNC(=O)[C@H](CC(C)C)NC(=O)CNC(=O)[C@H](CO)NC(=O)[C@H](CCC(N)=O)NC(=O)[C@H](C)NC(=O)CNC1=O` [Example 17] (H-CFGGRMDRIGAQSGLGCNSFRY-NH2; disulfide 1-17), for which, in data set [1] (setting [3]), the EC50 was found to be 2.21e-08 M.

With `CC[C@H](C)[C@@H]1NC(=O)[C@H](CCCNC(=N)N)NC(=O)[C@H](CC(=O)O)NC(=O)[C@H](CCSC)NC(=O)[C@H](CCCCN)NC(=O)[C@H](CCCNC(=N)N)NC(=O)CNC(=O)[C@H](Cc2ccccc2)NC(=O)[C@@H](NC(=O)CNC(=O)[C@H](CO)NC(=O)CNC(=O)[C@H](CCC(N)=O)NC(=O)[C@@H](NC(=O)[C@H](CCSC)NC(=O)[C@H](CCCCN)NC(=O)[C@@H]2CCCN2C(=O)[C@@H](N)CO)C(C)C)CSSC[C@@H](C(=O)N[C@@H](CCCCN)C(=O)N[C@H](C(=O)N[C@@H](CC(C)C)C(=O)N[C@@H](CCCNC(=N)N)C(=O)N[C@@H](CCCNC(=N)N)C(=O)N[C@@H](Cc2c[nH]cn2)C(N)=O)C(C)C)NC(=O)CNC(=O)[C@H](CC(C)C)NC(=O)CNC(=O)[C@H](CO)NC(=O)[C@H](CO)NC(=O)[C@H](CO)NC(=O)[C@H](CO)NC1=O` [Example 21], the Ki at NPR receptors (displacement of 125I-ANF, read-out: apparent inhibition constant (Ki value)) came out at 4.8 nM; on NPR receptors (displacement of 125I-rANF, text gives the same Ki in M, read-out: KI (inhibition constant)), 4.86 nM. For the same compound, the EC50 came out at 5.41e-09 M at NPR receptors (read-out: EC50 (M), concentration at 50% of inhibition, displacement of 0.016 nM 125I-rANF, 60 minutes at 4° C.) and 1.99e-08 M in data set [1].

Take “human BNP: native human Brain Natriuretic Peptide, 32 amino acid peptide”: the in vivo half-life in data set [2] is recorded as 12.7 min.
